Laboratory results as given in US6537803B1, “Amino acid transporters and uses” (Oregon Health Sciences University, priority 1993, dated 2003).
Where two headings read alike, the source gives them in different places. Residues, ends and D or L forms follow the SMILES beside them.

Legend:
Type in all cases: cell-based
human EAAT1 = biological target: T1, human EAAT1 (Homo sapiens, UniProt P43003); experiment: inhibition of [3H]-L-glutamate uptake in COS-7 cells expressing EAAT1; details: for inhibition of glutamate uptake (in words), EAAT1: COS cell culture
T1 construct: expressed in transfected cells; host or cells: COS-7 cells, pCMV5 construct, DEAE-dextran transient transfection
Excerpt: (§1) DNA fragments comprising the coding sequences of the novel glutamate transporter genes of the invention were excised from the POTV constructs described in Example 3 and subcloned into the mammalian expression plasmid pCMV5 (Anderson et al., 1989, J. Biol. Chem. 264: 8222-8229). These mammalian expression constructs were used for transient expression assays of glutamate transporter protein function after transfection of each of these constructs into COS-7 cells (Gluzman, 1981, Cell 23: 175-182).
(§2) Each of the pCMV5 constructs corresponding to EAAT1, EAAT2 and EAAT3 were introduced into COS-7 cells by DEAE-dextran facilitated transfection (see Sambrook et al., ibid.). Two day following transfection, the transfected cells were washed three times in phosphate-buffered saline (PBS) and then incubated with a mixture of radiolabeled amino acid ([^3H]-L-glutamate or [^3H]-D-aspartate; Dupont-NEN) and non-radiolabeled amino acid for 10 min. After incubation, the cells were washed three times with ice-cold PBS, solubilized with a solution of 0.1% sodium dodecyl sulfate (SDS) and the amount of radioactivity associated with the cells determined using standard liquid scintillation counting methods.
(§3) COS-7 cell cultures transformed with pCMVS-human glutamate transporter constructs as described in Example 4 were used to characterize the pharmacological properties of each of these transporter proteins relative to a variety of known glutamate transporter inhibitors. These assays were performed essentially as described in Example 4, with the exception that varying amounts of each of a number of known inhibitor compounds were included in the incubations.
(§4) In these experiments, uptake of 1 μM of […] was determined in the presence of the indicated amounts of each of the inhibitors.

human EAAT2 = biological target: T2, human EAAT2 (Homo sapiens, UniProt P43004); experiment: inhibition of [3H]-L-glutamate uptake in COS-7 cells expressing EAAT2; details: for inhibition of glutamate uptake (in words), EAAT2: COS cell culture
T2 construct: expressed in transfected cells; host or cells: COS-7 cells, pCMV5 construct, DEAE-dextran transient transfection
Excerpt: as §1, §2, §3, §4

human EAAT3 = biological target: T3, human EAAT3 (Homo sapiens, UniProt P43005); experiment: inhibition of [3H]-L-glutamate uptake in COS-7 cells expressing EAAT3; details: for inhibition of glutamate uptake (in words), EAAT3: COS cell culture
T3 construct: isolation of Clone GT11B containing a full-length open reading frame encoding EAAT3; expressed in transfected cells; host or cells: COS-7 cells, pCMV5 construct, DEAE-dextran transient transfection
T3 sequence (P43005 1-524): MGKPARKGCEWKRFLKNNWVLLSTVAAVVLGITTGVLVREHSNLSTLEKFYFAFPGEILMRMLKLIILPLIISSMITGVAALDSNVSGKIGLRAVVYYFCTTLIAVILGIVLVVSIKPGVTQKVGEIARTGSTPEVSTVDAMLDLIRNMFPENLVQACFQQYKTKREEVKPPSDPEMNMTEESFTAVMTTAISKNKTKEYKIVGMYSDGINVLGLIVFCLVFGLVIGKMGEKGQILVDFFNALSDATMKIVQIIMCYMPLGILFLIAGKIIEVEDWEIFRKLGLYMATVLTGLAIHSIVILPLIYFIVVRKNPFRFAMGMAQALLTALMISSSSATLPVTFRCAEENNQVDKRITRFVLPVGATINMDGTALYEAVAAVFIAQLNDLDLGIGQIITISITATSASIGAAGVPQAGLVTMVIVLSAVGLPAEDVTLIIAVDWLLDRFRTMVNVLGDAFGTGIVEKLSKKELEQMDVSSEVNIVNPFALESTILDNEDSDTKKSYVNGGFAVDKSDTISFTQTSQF
Excerpt: as §1, §2, §3, §4

[1] = biological target: T4, human ASCT1 neutral amino acid transporter (Homo sapiens, UniProt P43007); experiment: amino acid-induced inward current in voltage-clamped ASCT1-injected Xenopus oocytes; details: for effect on membrane current of ASCT1-injected oocytes: much higher concentrations (about 1 mM)
T4 construct: expressed in transfected cells; host or cells: Xenopus laevis oocytes injected with in vitro transcribed RNA (pOTV vector)
T4 sequence (P43007 1-532): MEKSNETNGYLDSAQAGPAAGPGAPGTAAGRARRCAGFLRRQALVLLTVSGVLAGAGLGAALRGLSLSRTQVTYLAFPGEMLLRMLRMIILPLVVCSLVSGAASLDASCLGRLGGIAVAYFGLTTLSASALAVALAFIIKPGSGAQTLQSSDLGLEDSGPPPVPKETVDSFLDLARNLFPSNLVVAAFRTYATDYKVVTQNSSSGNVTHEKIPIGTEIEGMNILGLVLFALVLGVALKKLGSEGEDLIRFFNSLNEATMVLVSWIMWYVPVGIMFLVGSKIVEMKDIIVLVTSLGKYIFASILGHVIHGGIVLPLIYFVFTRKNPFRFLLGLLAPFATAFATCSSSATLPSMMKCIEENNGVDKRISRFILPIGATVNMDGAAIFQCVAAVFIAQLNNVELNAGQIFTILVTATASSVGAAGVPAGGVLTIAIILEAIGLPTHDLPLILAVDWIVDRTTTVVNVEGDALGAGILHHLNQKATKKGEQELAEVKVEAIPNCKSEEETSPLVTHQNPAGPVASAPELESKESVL
Excerpt: Following the PCR, the product of the amplification reaction was purified using standard techniques (Saiki et al., 1988, Science 239: 487-491). The DNA then digested with the restriction enzymes KpnI and XbaI and then cloned into the polylinker of an oocyte transcription vector (POTV; see Wang el al., 1991, Nature 352: 729-731) that had been digested with KpnI and XbaI. Synthetic RNA was then transcribed in vitro from this clone using the method of Kavanaugh et al. (1992, J. Biol. Chem. 267: 22007-22009) employing bacteriophage T7 RNA polymerase (New England Biolabs, Beverly, Mass.). 20-50 nL of ASCT1 RNA (at a concentration of about 400 μg/mL) was injected into defolliculated stage V-VI Xenopus oocytes excised from female Xenopus laevis anesthetized by immersion in 3-aminobenzoic acid for 60 min. Excised oocytes were treated with collagenase II (Sigma Chemical Co., St. Louis, Mo.) in calcium-free Barth's saline solution [comprising 88 mM NaCl, 1 mM KCl, 2.4 mM NaHCO3, 0.82 mM MgSO4, 7.5 mM Tris-HCl (pH 7.6), 50 U/mL Nystatin (Sigma) and 0.1 mg/mL gentamycin (Sigma)] for 60 min., and then incubated overnight at 15° C. in 50% Leibowitz's L-15 media (Grand Island Biological Co. (GIBCO), Long Island, N.Y.). After overnight incubation the oocytes were mechanically defolliculated and then were injected with ASCT-1 RNA and incubated at 19° C. for 48 h (see Kim el al., 1991, Nature 352: 725-728 for further details of Xenopus oocyte preparation and microinjection).
Amino acid transport in such oocytes was assayed using [^3H] alanine, [^3H] serine or [^35S] cysteine (obtained from New England Nuclear, Boston, Mass.). Briefly, microinjected oocytes were […] at −60 mV using a Dagan TEV-200 clamp amplifier with an Axon Instruments (Foster City, Calif.) TL-1 A/D interface controlled by pCLAMP software (Axon Instruments) (see Kavanaugh et al., 1992, J. Biol. Chem. 267: 22007-22009 for a detailed review of this methodology) and continuously superfused with ND-96 buffer (consisting of 96 mM NaCl/2 mM KCl/1.8 mM CaCl2/1 mM MgCl2/5 mM HEPES, pH 7.5). For transport measurements, this solution was changed to a solution containing varying concentrations of the radiolabeled amino acids in ND-96 buffer.
More detailed analyses of ithe kinetics of amino acid influx were performed by least squares linear regression analysis of induced inward current ([I]) plotted as a function of substrate amino acid concentration ([S]), using the equation shown in the legend of Table II.

[2] = read-out: Ki, glutamate uptake inhibition constant, EAAT1
[3] = read-out: Ki, glutamate uptake inhibition constant, EAAT2
[4] = read-out: Ki, glutamate uptake inhibition constant, EAAT3

T1 sequence (P43003 whole entry): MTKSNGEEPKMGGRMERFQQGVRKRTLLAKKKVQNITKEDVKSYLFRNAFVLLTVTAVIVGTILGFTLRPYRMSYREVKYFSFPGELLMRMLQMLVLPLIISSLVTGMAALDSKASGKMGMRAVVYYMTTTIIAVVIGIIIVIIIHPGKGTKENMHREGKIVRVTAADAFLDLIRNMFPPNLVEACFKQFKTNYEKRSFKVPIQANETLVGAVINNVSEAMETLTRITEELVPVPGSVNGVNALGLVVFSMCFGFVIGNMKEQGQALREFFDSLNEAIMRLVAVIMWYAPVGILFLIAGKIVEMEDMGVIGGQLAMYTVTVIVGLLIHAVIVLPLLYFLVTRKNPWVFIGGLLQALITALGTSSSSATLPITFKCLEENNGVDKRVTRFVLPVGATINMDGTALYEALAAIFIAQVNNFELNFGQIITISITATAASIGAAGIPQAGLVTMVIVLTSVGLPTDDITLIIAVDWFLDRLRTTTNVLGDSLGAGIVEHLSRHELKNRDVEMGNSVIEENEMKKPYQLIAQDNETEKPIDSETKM
T2 sequence (P43004 whole entry): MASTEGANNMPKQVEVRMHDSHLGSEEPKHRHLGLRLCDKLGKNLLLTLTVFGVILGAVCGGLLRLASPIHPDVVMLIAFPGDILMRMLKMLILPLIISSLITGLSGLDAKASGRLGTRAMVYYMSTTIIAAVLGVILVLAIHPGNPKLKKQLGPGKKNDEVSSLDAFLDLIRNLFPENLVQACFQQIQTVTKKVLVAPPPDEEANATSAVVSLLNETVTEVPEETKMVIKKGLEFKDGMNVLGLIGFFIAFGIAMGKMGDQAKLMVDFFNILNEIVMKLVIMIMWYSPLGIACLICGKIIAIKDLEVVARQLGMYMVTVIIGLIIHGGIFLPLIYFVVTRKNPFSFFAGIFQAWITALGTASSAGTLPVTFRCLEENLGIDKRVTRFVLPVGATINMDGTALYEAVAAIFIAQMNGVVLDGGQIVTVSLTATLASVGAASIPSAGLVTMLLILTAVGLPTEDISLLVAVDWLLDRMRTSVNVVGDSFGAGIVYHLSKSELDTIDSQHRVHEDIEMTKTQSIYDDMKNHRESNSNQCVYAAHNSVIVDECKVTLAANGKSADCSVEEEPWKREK

Row | SMILES | inhibition of glutamate uptake (in words), EAAT1 (human EAAT1) | inhibition of glutamate uptake (in words), EAAT2 (human EAAT2) | inhibition of glutamate uptake (in words), EAAT3 (human EAAT3) | effect on membrane current of ASCT1-injected oocytes [1] | further results
1 | CC(=O)N[C@@H](CC(=O)O)C(=O)N[C@@H](CCC(=O)O)C(=O)O [N-acetyl aspartylglutamate] (Ac-Asp-Glu-OH) | ineffective | ineffective | ineffective | – | –
2 | NCC(=O)O [glycine] | – | – | – | had no effect | –
3 | NC(CCCC(=O)O)C(=O)O (stereo not drawn) [α-aminoadipate] | only low potency | only low potency | only low potency | – | –
4 | C=C(C)[C@H]1CN[C@H](C(=O)O)[C@H]1CC(=O)O [KAI, kainate] | – | – | – | – | Ki (human EAAT1; uptake of 1 μM [3H]-L-glutamate, bound given in mM, read-out: Ki, glutamate uptake inhibition constant, EAAT1): > 1 mM; Ki (human EAAT2; uptake of 1 μM [3H]-L-glutamate, [S] << Km, Ki does not differ significantly from measured IC50, read-out: Ki, glutamate uptake inhibition constant, EAAT2): 59 ± 18 µM; Ki (human EAAT3; uptake of 1 μM [3H]-L-glutamate, bound given in mM, read-out: Ki, glutamate uptake inhibition constant, EAAT3): > 1 mM
5 | NC1(C(=O)O)CC(C(=O)O)C1 (stereo not drawn) [cis-1-aminocyclobutane-1,3-dicarboxylate] | ineffective | ineffective | ineffective | – | –
6 | O=C1CC[C@@H](C(=O)O)N1 [L-pyroglutamicacid] | ineffective | ineffective | ineffective | – | –
7 | N[C@H](C(=O)O)[C@H](O)C(=O)O [THA, L-threo-β-hydroxyaspartate] | – | – | – | – | Ki (human EAAT1; [2]): 0.032 ± 0.008 mM; Ki (human EAAT2; [3]): 19 ± 6 µM; Ki (human EAAT3; [4]): 0.025 ± 0.005 mM
8 | CC(C)C[C@H](N)C(=O)O [leucine] | – | – | – | had no effect | –
9 | C[C@@H](O)[C@H](N)C(=O)O [Threonine] | – | – | – | – | Imax (maximal current) ([1]; L-stereoisomer, current normalized to the maximum response obtained with L-alanine, mean ± standard error): 1.4 ± 0.03
10 | NCCCC[C@H](N)C(=O)O [L-lysine] | – | – | – | had no effect | –
11 | CN[C@H](CC(=O)O)C(=O)O [N-methyl-D-aspartate] | ineffective | ineffective | ineffective | – | –
12 | N=C(N)NCCC[C@H](N)C(=O)O [arginine] | – | – | – | had no effect | –
13 | NC(=O)CC[C@H](N)C(=O)O [L-glutamine] | – | – | – | had no effect | –
14 | N[C@@H](COS(=O)(=O)O)C(=O)O [SOS, L-serine-O-sulfate] | – | – | – | – | Ki (human EAAT1): 0.107 ± 0.008 mM; Ki (human EAAT2): 1160 ± 275 µM; Ki (human EAAT3): 0.15 ± 0.052 mM
15 | N[C@@H](CC(=O)NO)C(=O)O [L-aspartate-β-hydroxymate] | – | – | – | – | Ki (human EAAT1; [2]): 0.369 ± 0.07 mM; Ki (human EAAT2; [3]): 184 ± 27 µM; Ki (human EAAT3; [4]): 0.133 ± 0.034 mM
